# Where two headings read alike, the source gives them in different places. Positions of bridges follow the written chain, without caps; N, C: chain ends. Non-standard residues stand in square brackets, D forms with d. Residues, ends and D or L forms follow the SMILES beside them. No end group written: not given here. S5 = C=CCCC[C@](C)(N)C(=O)O; Nle = CCCC[C@H](N)C(=O)O
# Legend:
# [1] = Circular dichroism, calculated α-helical content; assay type: physicochemical; conditions: for α-helical content: comparative CD spectra, 20-mer residues 626-645
# Experimental: The α-helicity of stapled modified polypeptides can be compared to their unmodified counterparts by circular dichroism. CD spectra can be obtained on a Jasco J-710 or Aviv spectropolarimeter at 20° C. using the following standard measurement parameters: wavelength, 190-260 nm; step resolution, 0.5 nm; speed, […]; accumulations, 10; response, 1 sec; bandwidth, 1 nm; path length, 0.1 cm. The α-helical content of each peptide is calculated by dividing the mean residue ellipticity [Θ]222obs by the reported [Θ]222obs for a model helical peptide (Forood, B., E. J. Feliciano, and K. P. Nambiar, PNAS, 1993. 90(3): p. 838-842; J. Martin Scholtz, Biopolymers, 1991. 31(13): p. 1463-1470; Lawless, M. K., et al., Biochemistry, 1996. 35(42): p. 13697-13708) or using, for example, the Aviv machine using CDNN software developed by Brohm in order to deduce five different secondary structure fractions (helix, parallel and antiparallel beta-sheet, beta-turn and random coil). Protein Engineering, 1992. 5(3); p. 191-195
# To optimize the activity of tSAH-gp41 peptides, an alternative strategy based upon inserting one or more hydrocarbon staples into the full-length gp41-HR-2 constructs was pursued (FIG. 11, 12).
# [2] = test system: HIV-1 HXBc2; test: Luciferase-based HIV infectivity assay, HXBc2; assay type: cell-based; conditions: compared to T20
# Experimental: Recombinant HIV-1 bearing the envelope glycoproteins from three distinct HIV-1 strains, HXBc2, ADA, and HXBc2P 3.2, and a negative control virus bearing the amphotropic murine leukemia virus (A-MLV) envelope glycoproteins, were evaluated.
# [3] = test system: syncytia formation; test: HIV syncytial formation assay; assay type: cell-based, HIV-1
# Experimental: Functional assays can also be used to evaluate the modified polypeptides activity. In culture, multinucleated giant cells or “syncytia” form as a result of direct cell-cell fusion between HIV-1-infected and uninfected CD4-positive cells. In the syncytia formation assay, an indicator cell line expressing the CD4 receptor, and a fusogenic cell line that lacks the CD4 receptor but contains HIV-1 proteins on the surface, fuse to generate 70-100 multinucleated giant cells in culture within 48 h. Syncytia are then counted using an inverted microscope. The ability of stabilized alpha helix of gp41 (SAH-gp41) compounds to inhibit syncytia formation in a dose-responsive fashion is used as a functional measure of fusion inhibition, for which IC50s can be determined and compared with peptides T20 and T649 (Brenner, T. J., et al. The Lancet, 1991. 337(8748): p. 1001-1005; Madani, N., et al., Journal of Virology, 2007. 81(2): p. 532-538).
# The compounds of the invention were assayed for inhibition of syncytial formation using methods well known to those skilled in the art. Equal amounts of either T20/gp41(638-673) or SAH-gp41(626-645)A were added to the media.
# [4] = FIGURE 16C
# Excerpt: Table printed on a drawing sheet, FIGURE 16C
# First reader's note: The sheet prints two blocks (626-662 and 638-673 series) under one head; per the description the half-lives are in the presence of chymotrypsin at pH 7.
# [5] = FIGURE 16F
# Excerpt: Table printed on a drawing sheet, FIGURE 16F
# [6] = test system: pepsin; test: Protease exposure under acidic conditions: pepsin, pH 2; conditions: pepsin solution (protease exposure under acidic conditions)
molecule,measurement,setting,value
CCCC[C@H](NC(C)=O)C(=O)N[C@H](C(=O)N[C@@H](Cc1c[nH]c2ccccc12)C(=O)N[C@@]1(C)CCCC=CCCC[C@@](C)(C(=O)N[C@@H](CCC(=O)O)C(=O)N[C@H](C(=O)N[C@@H](CC(N)=O)C(=O)N[C@@H](CC(N)=O)C(=O)N[C@@H](Cc2ccc(O)cc2)C(=O)N[C@H](C(=O)N[C@@H](CO)C(=O)N[C@@H](CC(C)C)C(=O)N[C@H](C(=O)N[C@@H](Cc2c[nH]cn2)C(=O)N[C@@H](CO)C(=O)N[C@@H](CC(C)C)C(N)=O)[C@@H](C)CC)[C@@H](C)O)[C@@H](C)CC)NC(=O)[C@H](CC(=O)O)NC(=O)[C@H](Cc2c[nH]c3ccccc23)NC(=O)[C@H](CCC(=O)O)NC1=O)[C@@H](C)O [SAH-gp41(626-645)(A)] (Ac-[Nle]TW[S5]EWD[S5]EINNYTSLIHSL-NH2; staple 4-8; N-terminus and C-terminus assumed),α-helical content,[1],48%
same,anti-HXBc2 activity,[2],significant anti-HXBc2 activity
same,inhibition of syncytia formation (words),[3],markedly enhanced inhibitory activity
same,inhibition of syncytia formation (words),[3]; listed as SAH-gp41(626-645)A,inhibited syncytial formation more so than unmodified control polypeptides
"SAH-gp41(626-662)(A,F): doubly stapled gp41(626-662) HIV-1 fusion inhibitor peptide (LTWAEWDAEINNYTSLIHSLIEESQNQAEKNAQELLE; not fully specified (bridges); also: doubly stapled, places not given here)",half-life,[4],5.02 h
same,half-life,[5],34 h
gp41(626-645): unstapled 20-mer truncation of T649v consisting of residues 626-645 ([Nle]TW[Nle]EWDREINNYTSLIHSL) [reference compound],α-helical content,[1],20%
same,inhibition of syncytia formation (words),[3],only modest anti-syncytial activity
enfuvirtide,calculated α-helical content,[1]; CD spectra at physiologic pH,~25%
same,half-life at 25 μM,[6],4 min

# — patent US10259848B2, “Compositions and methods comprising hydrocarbon-stapled polypeptides” (Dana-Farber Cancer Institute, Inc., priority 2008, dated 2019)
